Reference: US20220119868A1, “PROFILING RNA-SMALL MOLECULE BINDING SITES WITH OLIGONUCLEOTIDES” (priority 2018, published 2022)

Assays:
[1] = system: RNA library A (5-nucleotide hairpin library); test: 2DCS selection with LOGOS analysis; format: binding; conditions: 5-nucleotide hairpins
Source text: (§1) Identification of RNA-binding Small Molecules by 2DCS. […] We have previously validated the secondary structures formed by members of RNA libraries by enzymatic mapping^8, 12, 34. These discrete RNA motifs were selected because they are present in cellular RNAs. Due to the library-versus-library nature of these studies, they represent the largest screens completed to date, probing >52,000,000 interactions. Of the 1,987 compounds probed, 239 bound RNA (12.0%).
A final screen was then completed in which the 91 array-immobilized compounds were incubated with all five RNA motif libraries separately in the presence of oligonucleotide competitors F-J, d(AT)11 and d(GC)11. Oligonucleotides F-J mimic regions common to all library members, restricting binding to the randomized regions. (Note: oligonucleotide J was not used for hairpin selections.) After rigorous washing to remove unbound RNAs, bound RNAs were harvested and identified by RNA-seq. By completing selections under conditions of high oligonucleotides stringency (by use of excess competitor oligonucleotides), these studies identified small molecules that bound RNA motifs avidly. A challenge in the small molecule RNA-targeting area has been the development and identification of selective interactions between small molecules and RNAs. In myriad studies, 2DCS has defined selective RNA motif-small molecule interactions with varied affinities^11, 12, 35, 36.
Identification of Privileged RNA Space by RNA-Seq. Using RNA-seq, a large sequencing dataset was obtained for each pool of RNAs that were specifically bound to each small molecule. RNA libraries A, B, C, D, and E had at least 12.1-fold (average: 133.1±111.8), 6.7-fold (average: 80.8±78.7), 9.9-fold (average: 103.5±110.6), 7.2-fold (average: 75.7±65.6), and 6.0-fold (average: 36.3±31.6) coverage for each small molecule selection, respectively, as compared to the number of unique sequences within the corresponding RNA library. It was previously shown that at least 6-fold coverage is required to generate binding landscape maps^12. RNA-seq data were then analyzed by High Throughput Structure-Activity Relationships Through Sequencing (HiT-StARTS)^12 to identify the privileged RNA motifs that bind each small molecule. Briefly, the frequency of occurrence of a selected RNA was compared to the frequency of occurrence of the same RNA from RNA-seq analysis of the starting RNA library to account for biases arising during transcription and RT-PCR. This pooled population comparison affords the parameter Zobs, a metric of statistical confidence. A large, positive Zobs indicates a strong preference for binding the motif while a negative Zobs indicates a strong preference against binding the motif. A Fitness Score is assigned by normalizing the Zobs values to the most statistically significant small molecule-RNA interaction to 100. […] Structure-Activity Relationships (SAR). Next, the most privileged RNA motif binders and the most discriminated against RNA motifs (non-binders) for each compound selection was analyzed by generating LOGOS from the highest and lowest 0.5% of Zobs scores^37. By comparing the LOGOS for related compounds, or DiffLogos, SAR can be defined. Indeed, various hit compounds differ by a single functional group, including compounds A and B (FIG. 5). […] In contrast, the RNA motifs most hindered from binding compounds 1 and 2 (discriminated against) are quite different (FIG. 5B).
Four compounds that share an indolylpyrimidine-2,4-diamine core bound members of A (5-nucleotide hairpin library).
Oligonucleotides. All DNA oligonucleotides were purchased from Integrated DNA Technologies, Inc. (IDT) and used without further purification. RNA oligonucleotide competitors were purchased from Dharmacon and de-protected according to the manufacturer's standard procedure. All oligonucleotide solutions were prepared with NANOpure water. […]

RNA motif libraries A-E = test: 2DCS: array-immobilized small molecules incubated with RNA motif libraries; format: binding; conditions: libraries C-E
Source text: as §1
A final screen was then completed in which the 91 array-immobilized compounds were incubated with all five RNA motif libraries separately in the presence of oligonucleotide competitors F-J, d(AT)11 and d(GC)11. Oligonucleotides F-J mimic regions common to all library members, restricting binding to the randomized regions. (Note: oligonucleotide J was not used for hairpin selections.) After rigorous washing to remove unbound RNAs, bound RNAs were harvested and identified by RNA-seq. […]
Identification of Privileged RNA Space by RNA-Seq. […] RNA-seq data were then analyzed by High Throughput Structure-Activity Relationships Through Sequencing (HiT-StARTS)^12 to identify the privileged RNA motifs that bind each small molecule. […] Next, the most privileged RNA motif binders and the most discriminated against RNA motifs (non-binders) for each compound selection was analyzed by generating LOGOS from the highest and lowest 0.5% of Zobs scores^37. […]

[2] = system: HCV replication, SGR-Neo-RLuc-JFH1-2A replicon cells established in Huh-7.5; test: HCV replication in subgenomic replicon cells (Renilla luciferase); format: cell-based, Hepatitis C virus; conditions: Hepatitis C virus, Huh7.5; replicon cells, luciferase activity; read-out: IC50, inhibition of HCV replication
Source text: (§2) The compounds bind their cognate loops in the 3′ UTR with mid-nanomolar to low micromolar affinities (Table 1). It was next determined if the identified compounds could inhibit HCV RNA replication in HCV subgenomic replicon cells, in particular SGR-Neo-RLuc-JFH1-2A replicon cells established in Huh-7.5 (human hepatoma cells). In this system, an autonomously replicating viral RNA replicon is used to monitor efficiently RNA replication of the virus in the absence of spread of viral RNA to adjacent cells. This is achieved by replacing the structural proteins required to assembly progeny virions with a drug selectable marker (Neo) and a Renilla luciferase (RLuc) reporter gene. Once this replicon has been delivered to human hepatoma cells and selection with G418 (conferred by Neo selectable marker) has occurred, the expression and Renilla luciferase activity is directly correlated with the level of HCV replication^57.
They were therefore assayed for their ability to inhibit HCV replication using this replicon system, with DMSO vehicle and 2′-C-methyladenosine^17 triphosphate serving as negative and positive controls, respectively.
(§3) Effect of compounds on HCV replication. […] Cytotoxicity assays. […] Oligonucleotide profiling of target engagement in vitro. […] Primers can be found in Table 4. […] Inhibition of kinases. […] . Figure S7C).

panel of 22 kinases = test: In vitro inhibition of a panel of kinases; format: biochemical; conditions: 20 μM; panel of 22 kinases
[3] = molecular target: HCV RNA motif 5′CUG3′/3′G_C5′ (SL II); test: In solution, fluorescence-based binding affinity assay, HCV RNA motifs; design: species or system Hepatitis C virus
Source text: as §2
(§4) where n1 is the size of Population 1 (number of sequencing reads for a given RNA from RNA-seq analysis of the selected library), n2 is the size of Population 2 (number of sequencing reads for the same RNA from RNA-seq analysis of the starting library), p1 is the observed proportion of Population 1 (the number of reads for a given RNA from selected library/total number of reads), and p2 is the observed proportion for Population 2 (the number of reads for the same RNA in the starting library/total number of reads). Generation of Logos and DiffLogos: Zobs corresponding to the highest (enriched) 0.5% and lowest (discriminated against) 0.5% scores were analyzed to generate consensus sequences, or Logos. The resulting list of sequences were converted to position weight matrix (PWM) lists for each compound. “Enriched” and “discriminated” sequences were kept separate using JMP®, Version <13.2.1>. SAS Institute Inc., Cary, N.C., 1989-2007. The R package Difflogo,^16 which is part of Bioconductor, was utilized to create the sequence logos from PWM lists for each compound and visually compare the differences between them. Binding Affinity Measurements. Dissociation constants were determined using an in solution, fluorescence-based assay. […] Serial dilutions (1:2) of the small molecule were then completed in 1× Assay Buffer supplemented with 1 mM MgCl2. The solutions were incubated for 30 min at room temperature, transferred to a 96-well plate, and fluorescence intensity measured on a BioTek-FLx800 plate reader. The change in fluorescence intensity as a function of small molecule concentration was fit to a one site binding model per equation 3: […]
as §3

[4] = molecular target: HCV RNA motif 5′GUG3′/3′C_C5′ (SL I and SL III); test: as above; design: species or system Hepatitis C virus
Source text: as §2, §4, §3

[5] = molecular target: HCV RNA motif 5′UAG3′/3′A_C5′ (SL I); test: as above; design: species or system Hepatitis C virus
Source text: as §2, §4, §3

Compound: COc1cc(Nc2cc(-c3ccc4c(ccn4C)c3)nc(N)n2)cc(OC)c1OC [Compound 4]
- nucleotide preference in position 1 (LOGOS) [1]: strong preference for G
- nucleotide preference in position 4 (LOGOS) [1]: G>C>>A or U

Compound: Cn1ccc2cc(-c3cc(NCc4cccnc4)nc(N)n3)ccc21 [Compound 6]
- nucleotide preference in position 4 (LOGOS) [1]: G≈U>>A or C

Compound: CNc1nc(Nc2ccc(C3=NCCN3)cc2)nc(Nc2ccc(C3=NCCN3)cc2)n1 [Compound 2]
- closing base pair preference (LOGOS) (RNA motif libraries A-E): potential preference for GU closing base pairs

Compound: Cn1ccc2cc(-c3cc(NCc4cccc(C(F)(F)F)c4)nc(N)n3)ccc21 [Compound 5]
- nucleotide preference in position 4 (LOGOS) [1]: G>U>>A or C

Compound: C[C@@]1(O)[C@H](O)[C@@H](CO)O[C@H]1n1cnc2c(N)ncnc21 [2′-C-methyladenosine, reference compound]
- IC50 [2]: 4.5 ± 0.1 µM

Compound: Cn1ccc2cc(-c3cc(NCc4nc5ccccc5[nH]4)nc(N)n3)ccc21 [Compound 3]
- nucleotide preference in position 1 (LOGOS) [1]: strong preference for G
- nucleotide preference in position 4 (LOGOS) [1]: G>U>>A or C

Compound: O=C(Nc1cccc(C2=NCCN2)c1)c1ccc(-c2ccc(C(=O)Nc3cccc(C4=NCCN4)c3)cc2)cc1 [Compound 10]
- kinases inhibited in the panel (panel of 22 kinases): No kinases were significantly inhibited
- IC50 [2]: 19 ± 2 µM
- Kd [3]: 7.1 ± 4.2 µM
- Kd [4]: 3.35 ± 0.77 µM
- Kd [5]: 0.46 ± 0.14 µM

Compound: O=C(Nc1cc(C2=NCCN2)cc(C2=NCCN2)c1)c1ccc(C(=O)Nc2cc(C3=NCCN3)cc(C3=NCCN3)c2)cc1 [Compound 9]
- kinases inhibited in the panel (panel of 22 kinases): No kinases were significantly inhibited
- IC50 [2]: > 100 µM
- Affinity [3]: N.B.
- Affinity [4]: N.B.
- Kd [5]: 1.3 ± 0.5 µM
